We go through 33 compounds from patent US12091411B2, “IRAK degraders and uses thereof” (Kymera Therapeutics, Inc., priority 2022, dated 2024).

This experiment has as its target T1, IRAK4 (Homo sapiens, UniProt Q9NWZ3).
T1 construct: Degradation of IRAK4 in OCI-LY10 was quantitatively measured using Meso Scale Discovery technology; endogenous in cells; host or cells: OCI-LY10
T1 sequence (Q9NWZ3 1-460): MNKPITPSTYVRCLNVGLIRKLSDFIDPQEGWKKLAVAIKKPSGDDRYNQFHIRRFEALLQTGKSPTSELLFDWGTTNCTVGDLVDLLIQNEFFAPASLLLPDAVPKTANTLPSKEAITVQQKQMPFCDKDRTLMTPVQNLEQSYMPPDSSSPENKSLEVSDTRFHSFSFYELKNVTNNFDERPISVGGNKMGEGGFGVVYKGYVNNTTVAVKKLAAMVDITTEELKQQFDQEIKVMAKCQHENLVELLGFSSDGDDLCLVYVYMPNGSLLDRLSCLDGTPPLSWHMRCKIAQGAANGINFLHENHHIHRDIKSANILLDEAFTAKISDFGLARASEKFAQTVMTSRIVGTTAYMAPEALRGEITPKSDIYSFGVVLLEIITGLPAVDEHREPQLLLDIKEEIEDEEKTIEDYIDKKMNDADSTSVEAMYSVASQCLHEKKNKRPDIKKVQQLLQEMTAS
In words: IRAK4 MSD Degradation in OCI-LY10. Format: cell-based. The following applies: OCI-LY10 cells, MSD. An outline of the steps: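 DC50, from a three-parameter logistic fit and reported as letter bins A (<0.01 μM), B, C, D (>0.2 μM or not tested), reflects IRAK4 loss measured by MSD electrochemiluminescence in OCI-LY10 lysates. Treatment: 8 doses, 1:3 steps, top 1 to 10 μM, 4 to 24 h, 37 °C.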

Where [1] appears, read: 4 hrs incubation, read-out: IRAK4 degradation in OCI-LY10 at 4 hrs: DC50.
[2] abbreviates: 24 hrs incubation, read-out: IRAK4 degradation in OCI-LY10 at 24 hrs: DC50.

Read-outs that look alike come from different tables or passages of the source.

`Cn1c(=O)n(C2CCC(=O)NC2=O)c2cccc(C3CCN(C[C@H]4CC[C@H](n5cc6cc(NC(=O)c7cccc(C(F)F)n7)c(C(C)(C)O)cc6n5)CC4)C[C@@H]3F)c21` (stereo partly shown) [I-652]: the DC50 runs as follows: under setting [1], above 200 nM; under setting [2], above 200 nM.
In the case of `Cn1c(=O)n(C2CCC(=O)NC2=O)c2cccc([C@@H]3CCN(C[C@H]4CC[C@H](n5cc6cc(NC(=O)c7cccc(C(F)F)n7)c(C(C)(C)O)cc6n5)CC4)C[C@H]3F)c21` (stereo partly shown) [I-653], the 50% degradation concentration (DC50) was above 200 nM under setting [1] and below 10 nM under setting [2].
`Cn1c(=O)n(C2CCC(=O)NC2=O)c2cccc([C@H]3CCN(C[C@H]4CC[C@H](n5cc6cc(NC(=O)c7cccc(C(F)F)n7)c(C(C)(C)O)cc6n5)CC4)C[C@@H]3F)c21` (stereo partly shown) [I-654]: the half-maximal degradation concentration (DC50) runs as follows: under setting [1], above 200 nM; under setting [2], above 200 nM.
For the compound `Cn1c(=O)n(C2CCC(=O)NC2=O)c2cccc([C@H]3CCN(C[C@H]4CC[C@H](n5cc6cc(NC(=O)c7cccc(C(F)F)n7)c(C(C)(C)O)cc6n5)CC4)C[C@H]3F)c21` (stereo partly shown) [I-655], the half-maximal degradation concentration (DC50) is, setting by setting: under setting [1], above 200 nM; under setting [2], above 200 nM.
On to `Cn1c(=O)n(C2CCC(=O)NC2=O)c2cccc([C@H]3CCN(C[C@H]4CC[C@H](n5cc6cc(NC(=O)c7cccc(C(F)(F)F)n7)ncc6n5)CC4)C[C@@H]3F)c21` (stereo partly shown) [I-657], for which the DC50 was above 200 nM under setting [1] and above 200 nM under setting [2].
Take `Cn1c(=O)n(C2CCC(=O)NC2=O)c2cccc(N3CCN(CC4COC5(C4)CN(C[C@H]4CC[C@H](n6cc(NC(=O)c7cnn8ccc(N9C[C@H]%10C[C@@H]9CO%10)nc78)c(C(F)F)n6)CC4)C5)CC3)c21` (stereo partly shown) [I-660]: the DC50 reads like this: under setting [1], above 200 nM; under setting [2], below 10 nM.
For `Cn1c(=O)n(C2CCC(=O)NC2=O)c2cccc(N3CCN(CC4COC5(C4)CN(C[C@H]4CC[C@H](n6cc7cc(NC(=O)c8cccc(C(F)(F)F)n8)ccc7n6)CC4)C5)CC3)c21` (stereo partly shown) [I-661], in that order: above 200 nM and above 200 nM.
As for `Cn1c(=O)n(C2CCC(=O)NC2=O)c2cccc(N3CCN(CC4COC5(C4)CN(C[C@H]4CC[C@H](n6cc7cc(NC(=O)c8cccc(C(F)(F)F)n8)ncc7n6)CC4)C5)CC3)c21` (stereo partly shown) [I-662], the half-maximal degradation concentration (DC50) was above 200 nM under setting [1] and above 200 nM under setting [2].
Take `Cn1c(=O)n(C2CCC(=O)NC2=O)c2cccc(N3CCN(CC4COC5(C4)CN(C[C@H]4CC[C@H](n6cc7cc(NC(=O)c8cccc(C(F)(F)F)n8)c(C(C)(C)O)cc7n6)CC4)C5)CC3)c21` (stereo partly shown) [I-663]: the DC50 was above 200 nM under setting [1] and above 200 nM under setting [2].
Take `Cn1c(=O)n(C2CCC(=O)NC2=O)c2cccc(C3CCN(CC4COC5(C4)CN(C[C@H]4CC[C@H](n6cc(NC(=O)c7cnn8ccc(N9C[C@H]%10C[C@@H]9CO%10)nc78)c(C(F)F)n6)CC4)C5)CC3)c21` (stereo partly shown) [I-664]: the DC50 was above 200 nM under setting [1] and above 200 nM under setting [2].
In the case of `Cn1c(=O)n(C2CCC(=O)NC2=O)c2cccc(N3CCN(CC4COC5(C4)CN(C[C@H]4CC[C@H](n6cc7cc(NC(=O)c8cccc(C(F)(F)F)n8)ccc7n6)CC4)C5)CC3)c21` (stereo partly shown) [I-665], under setting [1], the DC50 was above 200 nM.
For the compound `Cn1c(=O)n(C2CCC(=O)NC2=O)c2cccc(N3CCN(CC4COC5(C4)CN(C[C@H]4CC[C@H](n6cc7cc(NC(=O)c8cccc(C(F)(F)F)n8)ncc7n6)CC4)C5)CC3)c21` (stereo partly shown) [I-666], the DC50 under setting [1] was above 200 nM.
For the compound `Cn1c(=O)n(C2CCC(=O)NC2=O)c2cccc(C3CCN(CC4COC5(C4)CN(C[C@H]4CC[C@H](n6cc7cc(NC(=O)c8cccc(C(F)(F)F)n8)c(C(C)(C)O)cc7n6)CC4)C5)CC3)c21` (stereo partly shown) [I-667], the DC50 under setting [1] was above 200 nM and the DC50 under setting [2] was above 200 nM.
`Cn1c(=O)n(C2CCC(=O)NC2=O)c2cccc(N3CC4(CCN(C[C@H]5CC[C@H](n6cc7cc(NC(=O)c8cccc(C(F)(F)F)n8)ncc7n6)CC5)CC4(F)F)C3)c21` (stereo partly shown) [I-668]: the half-maximal degradation concentration (DC50) runs as follows: under setting [1], above 200 nM; under setting [2], 10 to 100 nM.
For `Cn1c(=O)n(C2CCC(=O)NC2=O)c2cccc(N3CC4(CCN(C[C@H]5CC[C@H](n6cc(NC(=O)c7cnn8ccc(N9C[C@H]%10C[C@@H]9CO%10)nc78)c(C(F)F)n6)CC5)CC4(F)F)C3)c21` (stereo partly shown) [I-669], in that order: above 200 nM and below 10 nM.
For `Cn1c(=O)n(C2CCC(=O)NC2=O)c2cccc(OC3CC(N4CCN(C[C@H]5CC[C@H](n6cc(NC(=O)c7cnn8ccc(N9C[C@H]%10C[C@@H]9CO%10)nc78)c(C(F)F)n6)CC5)CC4)C3)c21` (stereo partly shown) [I-670] the same measures were above 200 nM and below 10 nM.
For `Cn1c(=O)n(C2CCC(=O)NC2=O)c2cccc(C3CN([C@H]4CCN(C[C@H]5CC[C@H](n6cc7cc(NC(=O)c8cccc(C(F)(F)F)n8)ccc7n6)CC5)C[C@@H]4F)C3)c21` (stereo partly shown) [I-671], in that order: above 200 nM and below 10 nM.
`Cn1c(=O)n(C2CCC(=O)NC2=O)c2cccc(C3CN([C@H]4CCN(C[C@H]5CC[C@H](n6cc7cc(NC(=O)c8cccc(C(F)(F)F)n8)ncc7n6)CC5)C[C@@H]4F)C3)c21` (stereo partly shown) [I-672]: the DC50 is, setting by setting: under setting [1], above 200 nM; under setting [2], below 10 nM.
For the compound `Cn1c(=O)n(C2CCC(=O)NC2=O)c2cccc(C3CN([C@@H]4CCN(C[C@H]5CC[C@H](n6cc(NC(=O)c7cnn8ccc(N9C[C@H]%10C[C@@H]9CO%10)nc78)c(C(F)F)n6)CC5)C[C@@H]4F)C3)c21` (stereo partly shown) [I-673], the DC50 is, setting by setting: under setting [1], above 200 nM; under setting [2], below 10 nM.
On to `C[C@H]1CN(c2ccn3ncc(C(=O)Nc4cn([C@H]5CC[C@H](CN6CCN(CC7CN(c8cccc9c8n(C)c(=O)n9C8CCC(=O)NC8=O)C7)CC6)CC5)nc4C(F)F)c3n2)CCO1` (stereo partly shown) [I-674], for which the DC50 reads like this: under setting [1], above 200 nM; under setting [2], below 10 nM.
Consider `COc1ccc2c(c1N1CC(CN3CCN(C[C@H]4CC[C@H](n5cc(NC(=O)c6cnn7ccc(N8C[C@H]9C[C@@H]8CO9)nc67)c(C(F)F)n5)CC4)CC3)C1)n(C)c(=O)n2C1CCC(=O)NC1=O` (stereo partly shown) [I-675], for which the DC50 is above 200 nM under setting [1] and below 10 nM under setting [2].
For `Cn1c(=O)n(C2CCC(=O)NC2=O)c2ccc(F)c(N3CC(CN4CCN(C[C@H]5CC[C@H](n6cc(NC(=O)c7cnn8ccc(N9C[C@H]%10C[C@@H]9CO%10)nc78)c(C(F)F)n6)CC5)CC4)C3)c21` (stereo partly shown) [I-676] the same measures were above 200 nM and below 10 nM.
As for `Cn1c(=O)n(C2CCC(=O)NC2=O)c2cccc(N3CCN(C[C@]4(O)CC[C@@H](n5cc6cc(NC(=O)c7cccc(C(F)(F)F)n7)ncc6n5)CC4)CC3)c21` (stereo partly shown) [I-677], the half-maximal degradation concentration (DC50) runs as follows: under setting [1], above 200 nM; under setting [2], below 10 nM.
For `Cn1c(=O)n(C2CCC(=O)NC2=O)c2cccc(N3CC(F)(CN4CCN(C[C@H]5CC[C@H](n6cc(NC(=O)c7cnn8ccc(N9C[C@H]%10C[C@@H]9CO%10)nc78)c(C(F)F)n6)CC5)CC4)C3)c21` (stereo partly shown) [I-678] the same measures were above 200 nM and below 10 nM.
For `Cn1c(=O)n(C2CCC(=O)NC2=O)c2cccc(N3CCN([C@@H]4CCN(C[C@H]5CC[C@H](n6cc(NC(=O)c7cnn8ccc(N9C[C@H]%10C[C@@H]9CO%10)nc78)c(C(F)F)n6)CC5)C[C@@H]4F)CC3)c21` (stereo partly shown) [I-679] the same measures were above 200 nM and below 10 nM.
With `C[C@@H]1CN(c2ccn3ncc(C(=O)Nc4cn([C@H]5CC[C@H](CN6CCN(CC7CN(c8cccc9c8n(C)c(=O)n9C8CCC(=O)NC8=O)C7)CC6)CC5)nc4C(F)F)c3n2)CCO1` (stereo partly shown) [I-680], the 50% degradation concentration (DC50) under setting [1] is above 200 nM and the DC50 under setting [2] was below 10 nM.
As for `Cn1c(=O)n(C2CCC(=O)NC2=O)c2cccc(C3CN([C@@H]4CCN(C[C@H]5CC[C@H](n6cc(NC(=O)c7cnn8ccc(N9C[C@H]%10C[C@@H]9CO%10)nc78)c(C(F)F)n6)CC5)C[C@H]4F)C3)c21` (stereo partly shown) [I-681], the 50% degradation concentration (DC50) under setting [1] is above 200 nM and the 50% degradation concentration (DC50) under setting [2] is below 10 nM.
For `Cn1c(=O)n(C2CCC(=O)NC2=O)c2cccc(C3CN(C4CCN(C[C@H]5CC[C@H](n6cc(NC(=O)c7cnn8ccc(N9C[C@H]%10C[C@@H]9CO%10)nc78)c(C(F)F)n6)CC5)CC4(F)F)C3)c21` (stereo partly shown) [I-682], in that order: above 200 nM and below 10 nM.
Take `Cn1c(=O)n(C2CCC(=O)NC2=O)c2cccc(N3CCN([C@@H]4CCN(C[C@H]5CC[C@H](n6cc(NC(=O)c7cnn8ccc(N9C[C@H]%10C[C@@H]9CO%10)nc78)c(C(F)F)n6)CC5)C[C@H]4F)CC3)c21` (stereo partly shown) [I-683]: the half-maximal degradation concentration (DC50) runs as follows: under setting [1], above 200 nM; under setting [2], below 10 nM.
For `Cn1c(=O)n(C2CCC(=O)NC2=O)c2cccc(N3CCN(C[C@]4(O)CC[C@@H](n5cc6cc(NC(=O)c7cccc(C(F)(F)F)n7)ccc6n5)CC4)CC3)c21` (stereo partly shown) [I-684] the same measures were above 200 nM and below 10 nM.
As to `Cn1c(=O)n(C2CCC(=O)NC2=O)c2cccc(N3CCN(C[C@H]4CC[C@H](n5cc6cc(NC(=O)c7cccc(C#N)n7)ccc6n5)CC4)CC3)c21` (stereo partly shown) [I-685], the DC50 is, setting by setting: under setting [1], above 200 nM; under setting [2], below 10 nM.
For `Cn1c(=O)n(C2CCC(=O)NC2=O)c2ccc(F)c(N3CCN(C[C@H]4CC[C@H](n5cc6cc(NC(=O)c7cccc(C#N)n7)ccc6n5)CC4)CC3)c21` (stereo partly shown) [I-686] the same measures were above 200 nM and 10 to 100 nM.
For `COc1ccc2c(c1N1CCN(CC3CCC(n4cc5cc(NC(=O)c6cccc(C#N)n6)ccc5n4)CC3)CC1)n(C)c(=O)n2C1CCC(=O)NC1=O` (stereo not shown) [I-687], in that order: above 200 nM and below 10 nM.
